Experimental findings from patent publication US20250163104A1, “MACROCYCLIC IMMUNOMODULATORS” (priority 2021, published 2025) are described below.

Where two headings read alike, the source gives them in different places. Where a SMILES comes first, the peptide text is derived from it. Bridges are numbered along the chain shown (N, C = ends). [ ]: non-standard residue; d: D form. The star is where a group is joined. Phe(4-COOH) = N[C@@H](Cc1ccc(C(=O)O)cc1)C(=O)O; Bip = N[C@@H](Cc1ccc(-c2ccccc2)cc1)C(=O)O; Phe(3-OMe) = COc1cccc(C[C@H](N)C(=O)O)c1; Phe(3-Me) = Cc1cccc(C[C@H](N)C(=O)O)c1; Ala(cPent) = N[C@@H](CC1CCCC1)C(=O)O; Val(3-OH) = CC(C)(O)[C@H](N)C(=O)O; 4Pal = N[C@@H](Cc1ccncc1)C(=O)O; 3Thi = N[C@@H](Cc1ccsc1)C(=O)O; Cha = N[C@@H](CC1CCCCC1)C(=O)O; Cit = NC(=O)NCCC[C@H](N)C(=O)O; hSer = N[C@@H](CCO)C(=O)O; Carboxymethyl = O=C(O)C*; Nle = CCCC[C@H](N)C(=O)O; Orn = NCCC[C@H](N)C(=O)O; Pra = C#CC[C@H](N)C(=O)O; Dab = NCC[C@H](N)C(=O)O; Dap = NC[C@H](N)C(=O)O

The assay concerns the target T1, human PD-1 / PD-L1-Ig binding on Jurkat cell line over-expressing human PD-1 (Jurkat-PD-1) (Homo sapiens, UniProt Q15116).
T1 construct: expressed in transfected cells; host or cells: Jurkat
Nature of the assay: Jurkat-PD-1 Cell Binding High-Content Screening Assay (CBA). The conditions noted are these: PE-labeled PD-L1-Ig 20 nM final. The assay is classed as cell-based. The gist of the method:
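Jurkat cells over-expressing human PD-1, in DMEM/10% FCS, pre-incubated with compound 2 h at 37° C. PE-labeled human PD-L1-Ig (20 nM final) added for 1 h; cells fixed in paraformaldehyde with Hoechst 33342 nuclear stain, washed, and bound fluorescence quantified by high-content imaging.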

Where [1] appears, read: Jurkat-PD-1 cells, read-out: Jurkat HPD1_PDL1 IC50.

T1 sequence (Q15116 25-288): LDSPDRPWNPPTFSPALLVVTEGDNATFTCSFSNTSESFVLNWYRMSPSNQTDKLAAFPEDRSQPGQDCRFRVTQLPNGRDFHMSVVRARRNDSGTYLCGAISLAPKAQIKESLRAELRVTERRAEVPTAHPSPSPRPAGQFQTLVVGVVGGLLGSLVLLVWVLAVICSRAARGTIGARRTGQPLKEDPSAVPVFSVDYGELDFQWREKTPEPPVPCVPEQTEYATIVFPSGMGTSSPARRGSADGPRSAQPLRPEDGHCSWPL

One may read the IC50 as the concentration at which inhibition is half-maximal. `CCCC[C@@H]1NC(=O)[C@H](CCN)NC(=O)[C@@H](CC(C)C)NC(=O)[C@H](CCCN)NC(=O)[C@H](CCCNC(N)=O)NC(=O)[C@H](Cc2ccc(-c3ccccc3)cc2)NC(=O)[C@H](C(C)C)NC(=O)[C@H](Cc2cccc(C)c2)NC(=O)[C@H](CC(=O)O)NC(=O)[C@H](Cc2ccc(C(=O)O)cc2)NC(=O)[C@H](Cc2ccncc2)NC(=O)CSC[C@@H](C(=O)N[C@@H](C)C(N)=O)NC(=O)[C@H]([C@@H](C)O)NC(=O)[C@H](C(C)C)NC1=O` [Compound 1189] ({CH2CO}-[4Pal][Phe(4-COOH)]D[Phe(3-Me)]V[Bip][Cit][Orn][dL][Dab][Nle]VTCA-NH2; thioether N-14): the IC50 under setting [1] came to 17.7 nM.

As to `Cc1cccc(C[C@@H]2NC(=O)[C@H](CC(=O)O)NC(=O)[C@H](Cc3ccc(C(=O)O)cc3)NC(=O)[C@H](Cc3ccncc3)NC(=O)CSC[C@@H](C(N)=O)NC(=O)[C@H](CC(N)=O)NC(=O)[C@H](C(C)C)NC(=O)[C@H](CC3CCCCC3)NC(=O)[C@H](CCN)NC(=O)[C@@H](CC(C)C)NC(=O)[C@H](CCCN)NC(=O)[C@H](CCCNC(N)=O)NC(=O)[C@H](Cc3ccc(-c4ccccc4)cc3)NC(=O)[C@H](C(C)C)NC2=O)c1` [Compound 2271] ({CH2CO}-[4Pal][Phe(4-COOH)]D[Phe(3-Me)]V[Bip][Cit][Orn][dL][Dab][Cha]VNC-NH2; thioether N-14), under setting [1], the IC50 was 16 nM.

As to `CC(C)C[C@H]1NC(=O)[C@H](CCCN)NC(=O)[C@H](C(C)C)NC(=O)[C@H](Cc2ccc(-c3ccccc3)cc2)NC(=O)[C@H](CC2CCCC2)NC(=O)[C@H](Cc2c[nH]c3ccccc23)NC(=O)[C@H](CC(=O)O)NC(=O)[C@H](Cc2ccc(OCC(=O)O)cc2)NC(=O)[C@H](CN)NC(=O)CSC[C@@H](C(=O)N[C@@H](C)C(N)=O)NC(=O)[C@H]([C@@H](C)O)NC(=O)[C@H](C(C)C)NC(=O)[C@H](CC2CCCCC2)NC(=O)[C@H](CCN)NC1=O` [Compound 1731] ({CH2CO}-[Dap]Y(Carboxymethyl)DW[Ala(cPent)][Bip]V[Orn][dL][Dab][Cha]VTCA-NH2; thioether N-14), the IC50 (Jurkat HPD1_PDL1 IC50, Jurkat-PD-1 cells) came to 13 nM.

As for `CC(=O)NCCCC[C@@H]1NC(=O)[C@H](C(C)C)NC(=O)[C@H](CC2CCCCC2)NC(=O)[C@H](CCN)NC(=O)[C@@H](CC(C)C)NC(=O)[C@H](CCN)NC(=O)[C@H](C(C)C)NC(=O)[C@H](Cc2ccc(-c3ccccc3)cc2)NC(=O)[C@H](C(C)C)NC(=O)[C@H](Cc2c[nH]c3ccccc23)NC(=O)[C@H](CC(=O)O)NC(=O)[C@H](Cc2ccc(OCC(=O)O)cc2)NC(=O)[C@H](Cc2ccsc2)NC(=O)CSC[C@@H](C(=O)N[C@@H](CCN)C(N)=O)NC1=O` [Compound 2613] ({CH2CO}-[3Thi]Y(Carboxymethyl)DWV[Bip]V[Dab][dL][Dab][Cha]VK(Ac)C[Dab]-NH2; thioether N-14), under setting [1], the concentration for half-maximal inhibition (IC50) amounted to 11 nM.

As to `CC(C)C[C@@H]1NC(=O)[C@H](Cc2c[nH]c3ccccc23)NC(=O)[C@H](CC(=O)O)NC(=O)[C@H](Cc2ccc(O)cc2)NC(=O)[C@H](Cc2ccccc2)NC(=O)CSC[C@@H](C(=O)NCC(N)=O)NC(=O)[C@H](CO)NC(=O)[C@H](C(C)C)NC(=O)[C@H](CC(C)C)NC(=O)[C@H](CCN)NC(=O)[C@@H](C)NC(=O)[C@H](CCN)NC(=O)[C@H](C(C)C)NC(=O)[C@H](Cc2ccc(-c3ccccc3)cc2)NC1=O` [Compound 1106] ({CH2CO}-FYDWL[Bip]V[Dab][dA][Dab]LVSCG-NH2; thioether N-14), the IC50 under setting [1] came out at 66.7 nM.

In the case of `CCCC[C@@H]1NC(=O)[C@H](CCN)NC(=O)[C@@H](CC(C)C)NC(=O)[C@H](CCCN)NC(=O)[C@H](CCCNC(N)=O)NC(=O)[C@H](Cc2ccc(-c3ccccc3)cc2)NC(=O)[C@H](C(C)C)NC(=O)[C@H](Cc2c[nH]c3ccccc23)NC(=O)[C@H](CC(=O)O)NC(=O)[C@H](Cc2ccc(O)cc2)NC(=O)[C@H](CN)NC(=O)CSC[C@@H](C(=O)N[C@@H](C)C(N)=O)NC(=O)[C@H]([C@@H](C)O)NC(=O)[C@H](C(C)C)NC1=O` [Compound 1158] ({CH2CO}-[Dap]YDWV[Bip][Cit][Orn][dL][Dab][Nle]VTCA-NH2; thioether N-14), the IC50 under setting [1] was determined as 73.1 nM.

With `CC(C)C[C@H]1NC(=O)[C@H](CCCN)NC(=O)[C@H](CCC(=O)O)NC(=O)[C@H](Cc2ccc(-c3ccccc3)cc2)NC(=O)[C@H](C(C)C)NC(=O)[C@H](Cc2c[nH]c3ccccc23)NC(=O)[C@H](CC(=O)O)NC(=O)[C@H](Cc2ccc(-c3cccc(C(=O)O)c3)cc2)NC(=O)[C@H](CN)NC(=O)CSC[C@@H](C(=O)N[C@@H](C)C(N)=O)NC(=O)[C@H]([C@@H](C)O)NC(=O)[C@H](C(C)C)NC(=O)[C@H](CC2CCCCC2)NC(=O)[C@H](CCN)NC1=O` [Compound 2166], the IC50 under setting [1] worked out at 22.7 nM.

For the molecule `CC(C)C[C@H]1NC(=O)[C@H](CCCN)NC(=O)[C@H](CCC(=O)O)NC(=O)[C@H](Cc2ccc(-c3ccccc3)cc2)NC(=O)[C@H](C(C)C)NC(=O)[C@H](Cc2c[nH]c3ccccc23)NC(=O)[C@H](CCO)NC(=O)[C@H](Cc2ccc(OCC(=O)O)cc2)NC(=O)[C@H](CN)NC(=O)CSC[C@@H](C(=O)N[C@@H](C)C(N)=O)NC(=O)[C@H]([C@@H](C)O)NC(=O)[C@H](C(C)C)NC(=O)[C@H](CC2CCCCC2)NC(=O)[C@H](CCN)NC1=O` [Compound 1499] ({CH2CO}-[Dap]Y(Carboxymethyl)[hSer]WV[Bip]E[Orn][dL][Dab][Cha]VTCA-NH2; thioether N-14), the 50% inhibitory concentration (IC50) under setting [1] stood at 663 nM.

As to `COc1cccc(C[C@@H]2NC(=O)[C@H](CC(=O)O)NC(=O)[C@H](Cc3ccncc3)NC(=O)[C@H](Cc3ccc(OCC(=O)O)cc3)NC(=O)CSC[C@@H](C(=O)N[C@@H](C)C(N)=O)NC(=O)[C@H]([C@@H](C)O)NC(=O)[C@H](C(C)C)NC(=O)[C@H](CC3CCCCC3)NC(=O)[C@H](CCN)NC(=O)[C@@H](CC(C)C)NC(=O)[C@H](CCCN)NC(=O)[C@H](CCC(=O)O)NC(=O)[C@H](Cc3ccc(-c4ccccc4)cc3)NC(=O)[C@H](C(C)C)NC2=O)c1` [Compound 1505] ({CH2CO}-Y(Carboxymethyl)[4Pal]D[Phe(3-OMe)]V[Bip]E[Orn][dL][Dab][Cha]VTCA-NH2; thioether N-14), the half-maximal inhibitory concentration (IC50) under setting [1] was determined as 23.7 nM.

As for `CC[C@H](C)[C@@H]1NC(=O)[C@H](Cc2ccc(-c3ccccc3)cc2)NC(=O)[C@H](C(C)C)NC(=O)[C@H](Cc2c[nH]c3ccccc23)NC(=O)[C@H](CC(=O)O)NC(=O)[C@H](Cc2ccc(O)cc2)NC(=O)[C@H](CC(N)=O)NC(=O)CSC[C@@H](C(=O)N[C@@H](C)C(N)=O)NC(=O)[C@H]([C@@H](C)O)NC(=O)[C@H](C(C)C)NC(=O)[C@H](CC(C)C)NC(=O)[C@H](CCCNC(=N)N)NC(=O)[C@@H](CC(C)C)NC(=O)[C@H](CCCN)NC1=O` [Compound 1143] ({CH2CO}-NYDWV[Bip]I[Orn][dL]RLVTCA-NH2; thioether N-14), under setting [1], the IC50 worked out at 15.8 nM.

In the case of `CC(C)C[C@H]1NC(=O)[C@H](CCCN)NC(=O)[C@H](CCC(=O)O)NC(=O)[C@H](Cc2ccc(-c3ccccc3)cc2)NC(=O)[C@H](C(C)C)NC(=O)[C@H](Cc2cccc(C(F)(F)F)c2)NC(=O)[C@H](CC(=O)O)NC(=O)[C@H](Cc2ccc(C(=O)O)cc2)NC(=O)[C@H](Cc2ccc(OCC(=O)O)cc2)NC(=O)CSC[C@@H](C(=O)N[C@@H](C)C(N)=O)NC(=O)[C@H]([C@@H](C)O)NC(=O)[C@H](C(C)C)NC(=O)[C@H](CC2CCCCC2)NC(=O)[C@H](CCN)NC1=O` [Compound 1461], under setting [1], the IC50 turned out to be 13.6 nM.

For `CC(C)C[C@H]1NC(=O)[C@H](CCCN)NC(=O)[C@H](C(C)C)NC(=O)[C@H](Cc2ccc(-c3ccccc3)cc2)NC(=O)[C@H](C(C)C)NC(=O)[C@H](Cc2c[nH]c3ccccc23)NC(=O)[C@H](CC(=O)O)NC(=O)[C@H](Cc2ccc(OCC(=O)O)cc2)NC(=O)[C@H](Cc2ccc(OCC(=O)O)cc2)NC(=O)CSC[C@@H](C(=O)N[C@@H](C)C(N)=O)NC(=O)[C@H]([C@@H](C)O)NC(=O)[C@H](C(C)C)NC(=O)[C@H](CC2CCCCC2)NC(=O)[C@H](CCN)NC1=O` [Compound 1690], the IC50 under setting [1] was 12.4 nM.

Take `C#CC[C@H](NC(=O)[C@H](CCN)NC(=O)[C@@H]1CSCC(=O)N[C@@H](CCCN)C(=O)N[C@@H](Cc2ccc(OCC(=O)O)cc2)C(=O)N[C@@H](CC(=O)O)C(=O)N[C@@H](Cc2cccc(C)c2)C(=O)N[C@@H](Cc2ccc(OCC(=O)O)cc2)C(=O)N[C@@H](Cc2ccc(-c3ccccc3)cc2)C(=O)N[C@@H](Cc2ccc(OCC(=O)O)cc2)C(=O)N[C@@H](CCCN)C(=O)N[C@H](CC(C)C)C(=O)N[C@@H](CCN)C(=O)N[C@@H](CC2CCCCC2)C(=O)N[C@@H](C(C)(C)O)C(=O)N[C@@H]([C@@H](C)O)C(=O)N1)C(N)=O` [Compound 1854] ({CH2CO}-[Orn]Y(Carboxymethyl)D[Phe(3-Me)]Y(Carboxymethyl)[Bip]Y(Carboxymethyl)[Orn][dL][Dab][Cha][Val(3-OH)]TC[Dab][Pra]-NH2; thioether N-14): under setting [1], the IC50 was 15.1 nM.

With `CC(C)C[C@@H]1NC(=O)[C@H](Cc2c[nH]c3ccccc23)NC(=O)[C@H](CC(=O)O)NC(=O)[C@H](Cc2ccc(O)cc2)NC(=O)[C@H](Cc2ccccc2)NC(=O)CSC[C@@H](C(=O)NCC(N)=O)NC(=O)[C@H](CO)NC(=O)[C@H](C(C)C)NC(=O)[C@H](CC(C)C)NC(=O)[C@H](CCN)NC(=O)[C@@H](C)NC(=O)[C@H](CCCN)NC(=O)[C@H](C(C)C)NC(=O)[C@H](Cc2ccc(-c3ccccc3)cc2)NC1=O` [Compound 1096] ({CH2CO}-FYDWL[Bip]V[Orn][dA][Dab]LVSCG-NH2; thioether N-14), the half-maximal inhibitory concentration (IC50) under setting [1] is 68.8 nM.

As to `CCC(C)[C@@H]1NC(=O)[C@H](Cc2ccc(-c3ccccc3)cc2)NC(=O)[C@H](C(C)C)NC(=O)[C@H](Cc2c[nH]c3ccccc23)NC(=O)[C@H](CC(=O)O)NC(=O)[C@H](Cc2ccc(-c3cccc(C(=O)O)c3)cc2)NC(=O)[C@H](Cc2ccncc2)NC(=O)CSC[C@@H](C(=O)N[C@@H](C)C(N)=O)NC(=O)[C@H]([C@@H](C)O)NC(=O)[C@H](C(C)C)NC(=O)[C@H](CC2CCCCC2)NC(=O)[C@H](CCN)NC(=O)[C@@H](CC(C)C)NC(=O)[C@H](CCCN)NC1=O` (stereo partly drawn) [Compound 2221], the IC50 under setting [1] was 32.1 nM.
